Experimental data from patent EP1121940A1, “Pharmaceutical compositions comprising an antibiotic and bromhexine, and process for their preparation” (New Pharma Research Sweden AB, priority 2000, dated 2001).

Assays:
[1] = solutions of pH greater than six; cited from earlier work
pneumonia infection = experiment: Efficacy in the treatment of calves suffering from a pneumonia infection; assay type: in vivo; conditions: intramuscular injection once a day for four consecutive days, results after 5 days
Excerpt: (§1) The aim of this study was to evaluate the effect of a treatment with a composition in accordance with the present invention on the mortality and clinical signs of calves suffering from a pneumonia infection, and to compare the efficacy of this treatment with the efficacy of a treatment with a composition containing only the antibiotic.
20 calves aged 1 to 4 months were used for the experiment. The animals were suffering from a pneumonia infection, characterized by severe respiratory disorders including coughing, rale and increased body temperature (measured between +39.5°C and +41°C).
(§2) The calves were divided into 2 equal groups of 10 animals each. The first group was treated with a composition containing only enrofloxacin. The second group was treated with the composition of Example 1 of the present invention, i.e. containing both enrofloxacin and bromhexine-HCl. Thus, 1 ml of composition contained either 200 mg of enrofloxacin (composition for the treatment of the first group) or 200 mg of enrofloxacin and 10 mg of bromhexine-HCl (composition for the treatment of the second group).
For both groups, the treatment was made by intramuscular injection, once a day and for four consecutive days, at a dose of 1 ml of active composition per 80 kg of animal body weight.
To assess the efficacy of the treatment, the mortality and body temperature of the animals were recorded for each group over a period of ten days following the treatment.

Escherichia coli = experiment: Efficacy in the treatment of Escherichia coli infected chickens; assay type: in vivo, broiler chickens; conditions: oral via drinking water, three consecutive days, recorded over ten days following treatment
Excerpt: as §1, with “chickens naturally infected by Escherichia coli,” for “calves suffering from a pneumonia infection,”
10 000 broiler chickens aged 1 day were used for the experiment. The birds were infected by natural infection by Escherichia coli.
as §2, with “birds” for “calves”, “were then” for “were”, “5 000 birds” for “10 animals”, “invention,” for “invention, i.e.”
For both groups, the treatment was made orally, for three consecutive days, and using the drinking water, at a dose of 1 ml of active composition per 4 litres of drinking water.
To assess the efficacy of the treatment, the mortality and body weight of the animals were recorded for each group over a period of ten days following the treatment.

Row | Compound | precipitation in solutions [1] | Mortality % (pneumonia infection; 1 ml per 80 kg body weight) [%] | Mortality dead animals (pneumonia infection; 1 ml per 80 kg body weight, 10 calves per group) | Body temperature (pneumonia infection) | Mortality % (Escherichia coli; 1 ml composition per 4 litres) [%] | Mortality dead birds (Escherichia coli; 1 ml composition per 4 litres, 5000 birds per group) | Weight g/bird (Escherichia coli) [g/bird]
1 | CN(Cc1cc(Br)cc(Br)c1N)C1CCCCC1.Cl [Bromhexine-HCl, N-(2-amino-3,5-dibromobenzyl)-N-methyl-cyclohexylamine hydrochloride] | precipitate | – | – | – | – | – | –
2 | CCN1CCN(c2cc3c(cc2F)c(=O)c(C(=O)O)cn3C2CC2)CC1 [Enrofloxacine, 1-cyclopropyl-7-(4-ethyl-1-piperazinyl)-6-fluoro-1,4-dihydro-4-oxo-3-quinoline carboxylic acid] | – | 10 | 1/10 | over 41.5 °C | 2.23 | 113/5000 | 1810
